Where a name gives a salt, the structure may show the parent alone. Read-outs that look alike come from different tables or passages of the source.
Target: T1, human Y4 receptor (Homo sapiens, UniProt P50391)
T1 construct: expressed in transfected cells
Assay: NPY4 cAMP HTRF Agonist Assay (inhibitory cAMP assay, Gi activation by Y4 agonism)
Format: cell-based
Method in brief: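 CHO cells stably expressing human Y4, 5000/well, exposed to compound with forskolin and IBMX in PBS for 30 min at room temperature. Gi-mediated inhibition of cAMP then measured by HTRF after 1 h with d2-conjugate and anti-cAMP cryptate.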

[1] = second TABLE 1, R2 is Phenyl-CF3, read-out: hY4 CAMP EC50
[2] = human Y4 receptor, cAMP, read-out: hY4 CAMP EC50
[3] = TABLE 2, R2 is Phenyl-CN, read-out: hY4 CAMP EC50
[4] = human Y4 stable CHO clonal cells, forskolin + IBMX, read-out: NPY4 cAMP HTRF Agonist Assay EC50
[5] = TABLE 4, R2 is Pyridinyl-CN, read-out: hY4 CAMP EC50
[6] = TABLE 5, R2 is Pyridinyl-CF3, read-out: hY4 CAMP EC50

T1 sequence (P50391 whole entry): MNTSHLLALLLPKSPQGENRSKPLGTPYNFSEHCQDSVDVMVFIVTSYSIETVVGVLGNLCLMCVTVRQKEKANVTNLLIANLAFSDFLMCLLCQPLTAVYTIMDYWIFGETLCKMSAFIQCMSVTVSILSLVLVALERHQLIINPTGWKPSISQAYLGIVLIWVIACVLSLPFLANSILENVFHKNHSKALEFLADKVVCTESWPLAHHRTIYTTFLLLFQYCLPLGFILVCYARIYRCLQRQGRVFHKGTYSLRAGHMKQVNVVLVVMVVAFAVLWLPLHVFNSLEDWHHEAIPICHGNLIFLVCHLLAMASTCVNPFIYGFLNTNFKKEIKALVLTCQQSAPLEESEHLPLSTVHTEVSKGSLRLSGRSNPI

SMILES: OCCCC#Cc1ccnc(N[C@@H]2CCCC[C@H]2N[C@H]2CCCN(c3ccc(C(F)(F)F)cc3)C2)c1 [Example 166]
- EC50 [1]: 17 nM

SMILES: Cn1nnnc1-c1ccc(N2CCC[C@H](N[C@@H]3CCCC[C@H]3Nc3cc(-c4cccc(C(N)=O)c4)ccn3)C2)cc1 [Example 508]
- EC50 [2]: 21 nM

SMILES: N#Cc1ccc(N2CCC[C@H](N[C@@H]3CCCC[C@H]3Nc3cc(-c4cccc(C(F)(F)F)c4)ccn3)C2)cc1 [Example 249]
- EC50 [3]: 537 nM

SMILES: FC(F)(F)c1ccc(N2CCC[C@H](N[C@@H]3CCCC[C@H]3Nc3ncc(Cl)cn3)C2)cc1 [Example 196]
- EC50 [1]: 809 nM

SMILES: C=Cc1ccnc(N[C@@H]2CCCC[C@H]2N[C@H]2CCCN(c3ccc(C#N)cc3)C2)c1 [Example 246]
- EC50 [3]: 379 nM

SMILES: N#Cc1ccc(N2C[C@@H]3C[C@H](N[C@@H]4CCCC[C@H]4Nc4cc(Br)ccn4)[C@H]2C3)cc1 [Example 233]
- EC50 [3]: 196 nM

SMILES: CC(=O)c1ccccc1-c1ccnc(N[C@@H]2CCCC[C@H]2N[C@H]2CCCN(c3ccc(C#N)cc3)C2)c1 [Example 253]
- EC50 [3]: 70 nM

SMILES: N#Cc1ccc(N2CCC[C@H](N[C@@H]3CCCC[C@H]3Nc3nccc(-c4ccc(OC(F)(F)F)cc4)n3)C2)cc1 [Example 59, 4-((S)-3-((1R,2R)-2-(4-(4-(Trifluoromethoxy)phenyl)pyrimidin-2-ylamino)cyclohexylamino)piperidin-1-yl)benzonitrile bis-trifluoroacetate]
- EC50 [4]: 297 nM

SMILES: Cc1nnc(-c2ccc(N3CCCC(N[C@@H]4CCCC[C@H]4Nc4cc(-c5cncc6ccccc56)ccn4)C3)cc2)o1 (some centres unmarked) [Example 371]
- EC50 [2]: 18 nM

SMILES: N#Cc1ccc(N2CCC[C@H](N[C@@H]3CCCC[C@H]3Nc3nccc(-c4ccccc4)n3)C2)cn1 [Example 308]
- EC50 [5]: 135 nM

SMILES: O=C1OCCN1c1cccc(-c2cnc(N[C@@H]3CCCC[C@H]3N[C@H]3CCCN(c4cnc(C(F)(F)F)nc4)C3)o2)c1 [Example 416]
- EC50 [2]: 49 nM

SMILES: FC(F)(F)Oc1ccc(-c2cnc(N[C@@H]3CCCC[C@H]3N[C@H]3C[C@@H]4C[C@H]3N(c3ccc(C(F)(F)F)cc3)C4)o2)cc1 [Example 181]
- EC50 [1]: 126 nM

SMILES: CC(=O)c1cccc(-c2ccnc(N[C@@H]3CCCC[C@H]3N[C@H]3CCCN(c4ccc(C#N)cc4)C3)c2)c1 [Example 257]
- EC50 [3]: 100 nM

SMILES: CCOC(=O)c1cnc(N[C@@H]2CCCC[C@H]2N[C@H]2CCCN(c3ccc(C(F)(F)F)cc3)C2)o1 [Example 184, ethyl 2-(((1R,2R)-2-(((S)-1-(4-(trifluoromethyl)phenyl)piperidin-3-yl)amino)cyclohexyl)amino)oxazole-5-carboxylate]
- EC50 [1]: 764 nM

SMILES: N#Cc1ccc(N2CCC[C@H](N[C@@H]3CCCC[C@H]3Nc3cc(-c4ccc5cn[nH]c5c4)ccn3)C2)cc1 [Example 215]
- EC50 [3]: 215 nM

SMILES: FC(F)(F)Oc1ccc(-c2cnc(N[C@@H]3CCCC[C@H]3N[C@H]3C[C@@H]4C[C@H]3N(c3ncc(C(F)(F)F)cn3)C4)o2)cc1 [Example 423]
- EC50 [2]: 222 nM

SMILES: NC(=O)c1cccc(-c2cnc(N[C@@H]3CCCC[C@H]3N[C@H]3C[C@@H]4C[C@H]3N(c3ccc(C(F)(F)F)nc3)C4)o2)c1 [Example 328]
- EC50 [6]: 31 nM

SMILES: C[C@]1(N[C@@H]2CCCC[C@H]2Nc2cc(-c3cccc(C(N)=O)c3)ccn2)CCCN(c2ccc(C#N)nc2)C1 [Example 306]
- EC50 [5]: 141 nM

SMILES: N#Cc1ccc(N2CCC[C@H](N[C@@H]3CCCC[C@H]3Nc3ncc(-c4cccc(C(N)=O)c4)o3)C2)cc1 [Example 265]
- EC50 [3]: 2 nM

SMILES: c1ccc(-c2cnc(N[C@@H]3CCCC[C@H]3N[C@H]3CCCN(c4ccc(-n5cncn5)cc4)C3)o2)cc1 [Example 90, (1R,2R)—N1-((S)-1-(4-(1H-1,2,4-Triazol-1-yl)phenyl)piperidin-3-yl)-N2-(5-phenyloxazol-2-yl)cyclohexane-1,2-diamine bis-trifluoroacetate]
- EC50 [4]: 132 nM

SMILES: NC(=O)c1cccc(-c2cnc(N[C@@H]3CCCC[C@H]3N[C@H]3CCCN(c4ccc(C(F)(F)F)nc4)C3)o2)c1 [Example 320]
- EC50 [6]: 1 nM

SMILES: Cc1nc(-c2ccc(N3CCC[C@H](N[C@@H]4CCCC[C@H]4Nc4cc(-c5ccc(F)cc5F)ccn4)C3)cc2)no1 [Example 343]
- EC50 [2]: 11 nM

SMILES: N#Cc1ccc(N2CCC[C@H](N[C@@H]3CCCC[C@H]3Nc3cc(-c4ccc(C#N)s4)ccn3)C2)cc1 [Example 273]
- EC50 [3]: 542 nM

SMILES: N#Cc1ccc(N2CC3CC2[C@@H](N[C@@H]2CCCC[C@H]2Nc2ncc(-c4ccc(OC(F)F)cc4)o2)C3)cc1 (some centres unmarked) [Example 229]
- EC50 [3]: 3 nM

SMILES: Cc1noc(-c2ccc(N3CCC[C@H](N[C@@H]4CCCC[C@H]4Nc4ncc(-c5ccc(OC(F)(F)F)cc5)o4)C3)cc2)n1 [Example 355]
- EC50 [2]: 225 nM

SMILES: O=[N+]([O-])c1ccc(N2CCC[C@H](N[C@@H]3CCCC[C@H]3Nc3nccc(-c4ccccc4)n3)C2)cc1 [Example 32, (1R,2R)—N1-((S)-1-(4-Nitrophenyl)piperidin-3-yl)-N2-(4-phenylpyrimidin-2-yl)cyclohexane-1,2-diamine]
- EC50 [4]: 60 nM

SMILES: NC(=O)c1cccc(-c2cnc(N[C@@H]3CCCC[C@H]3N[C@H]3CCCN(c4ccc(F)cc4)C3)o2)c1 [Example 461]
- EC50 [2]: 55 nM

SMILES: NC(=O)c1cccc(-c2ccnc(N[C@@H]3CCCC[C@H]3N[C@H]3CCCN(c4ccc(C(F)(F)F)nc4)C3)c2)c1 [Example 321]
- EC50 [6]: 16 nM

SMILES: FC(F)(F)Oc1ccc(N2CCC[C@H](N[C@@H]3CCCC[C@H]3Nc3ncc(-c4ccccc4)o3)C2)cc1 [Example 86, (1R,2R)—N1-(5-Phenyloxazol-2-yl)-N2-((S)-1-(4-(trifluoromethoxy)phenyl)piperidin-3-yl)cyclohexane-1,2-diamine]
- EC50 [4]: 91 nM

SMILES: N#Cc1ccc(N2CCC[C@H](N[C@@H]3CCCC[C@H]3Nc3ncc(-c4ccccc4)o3)C2)c(F)c1 [Example 51, 3-Fluoro-4-((S)-3-((1R,2R)-2-(5-phenyloxazol-2-ylamino)cyclohexylamino)piperidin-1-yl)benzonitrile]
- EC50 [4]: 548 nM

SMILES: FC(F)(F)c1ccc(N2CCC[C@H](N[C@@H]3CCCC[C@H]3Nc3ncc(-c4ccccc4)s3)C2)cc1 [Example 72, (1R,2R)—N1-(5-Phenylthiazol-2-yl)-N2-((S)-1-(4-(trifluoromethyl)phenyl)piperidin-3-yl)cyclohexane-1,2-diamine]
- EC50 [4]: 15 nM

SMILES: NC(=O)c1cccc(-c2cnc(N[C@@H]3CCCC[C@H]3N[C@H]3CCCN(c4ccc(OC(F)(F)F)cc4)C3)o2)c1 [Example 459]
- EC50 [2]: 1 nM

SMILES: C[C@]1(N[C@@H]2CCCC[C@H]2Nc2ncc(-c3cccc(C(N)=O)c3)o2)CCCN(c2ccc(C(=N)NC(=O)C3CC3)nc2)C1 [Example 445]
- EC50 [2]: 4 nM

SMILES: N#Cc1ccc(N2CCCC(N[C@@H]3CCCC[C@H]3Nc3cc(-c4cccc(C(N)=O)c4)ccn3)C2)cn1 (some centres unmarked) [Example 312]
- EC50 [5]: 124 nM

SMILES: C[C@]1(N[C@@H]2CCCC[C@H]2Nc2cc(-c3cccc(C(N)=O)c3)ccn2)CCCN(c2ccc(-c3noc(C4CC4)n3)nc2)C1 [Example 450]
- EC50 [2]: 10 nM

SMILES: N#Cc1ccc(N2CCC[C@H](N[C@@H]3CCCC[C@H]3NC3=NOC(c4ccccc4)C3)C2)cc1 (some centres unmarked) [Example 230]
- EC50 [3]: 378 nM

SMILES: COC(=O)c1cccc(-c2cnc(N[C@@H]3CCCC[C@H]3N[C@H]3CCCN(c4ccc5nc(C)nn5c4)C3)o2)c1 [Example 495]
- EC50 [2]: 49 nM

SMILES: N#Cc1ccc(N2CCC[C@H](N[C@@H]3CCCC[C@H]3Nc3ncc(-c4ccccc4OC(F)(F)F)o3)C2)cc1 [Example 226]
- EC50 [3]: 5 nM

SMILES: N#Cc1ccc(N2CCC[C@H](N[C@@H]3CCCC[C@H]3Nc3cc(-c4cnc5ccccc5c4)ccn3)C2)cc1 [Example 217]
- EC50 [3]: 478 nM

SMILES: Cc1nc(-c2ccc(N3CCC[C@H](N[C@@H]4CCCC[C@H]4Nc4ncc(-c5cccc(C(=O)NCC(C)C)c5)o4)C3)cn2)no1 [Example 386]
- EC50 (TABLE 7, R2 is Pyridinyl-oxadiazole-CH3, read-out: hY4 CAMP EC50): 243 nM

SMILES: O=[N+]([O-])c1ccc(N2CCC[C@H](N[C@@H]3CCCC[C@H]3Nc3ncc(-c4cccc(OC(F)(F)F)c4)o3)C2)cc1 [Example 22, (1R,2R)—N1-((S)-1-(4-Nitrophenyl)piperidin-3-yl)-N2-(5-(3-(trifluoromethoxy)phenyl)oxazol-2-yl)cyclohexane-1,2-diamine]
- EC50 [4]: 43 nM

SMILES: FC(F)(F)Oc1ccc(-c2cnc(N[C@@H]3CCCC[C@H]3N[C@H]3CCCN(c4ccc(-n5cccn5)cc4)C3)o2)cc1 [Example 63, (1R,2R)—N1-((S)-1-(4-(1H-Pyrazol-1-yl)phenyl)piperidin-3-yl)-N2-(5-(4-(trifluoromethoxy)phenyl)oxazol-2-yl)cyclohexane-1,2-diamine trifluoroacetate]
- EC50 [4]: 174 nM

SMILES: N#Cc1ccc(N2C[C@@H]3C[C@H](N[C@@H]4CCCC[C@H]4Nc4ncc(-c5cccc(C(N)=O)c5)o4)[C@H]2C3)cn1 [Example 303]
- EC50 [5]: 221 nM

SMILES: N#Cc1cnc(N2C[C@@H]3C[C@H](N[C@@H]4CCCC[C@H]4Nc4cc(Br)ccn4)[C@H]2C3)nc1 [Example 441]
- EC50 [2]: 803 nM

SMILES: Cc1nnc(-c2ccc(N3CCCC(N[C@@H]4CCCC[C@H]4Nc4cc(-c5cccnc5)ccn4)C3)cc2)o1 (some centres unmarked) [Example 345]
- EC50 [2]: 64 nM

SMILES: O=[N+]([O-])c1ccc(N2CCC[C@H](N[C@@H]3CCCC[C@H]3Nc3cc(-c4ccc(OC(F)(F)F)cc4)ccn3)C2)cc1 [Example 24, (1R,2R)—N1-((S)-1-(4-Nitrophenyl)piperidin-3-yl)-N2-(4-(4-(trifluoromethoxy)phenyl)pyridin-2-yl)cyclohexane-1,2-diamine]
- EC50 [4]: 69 nM

SMILES: O=[N+]([O-])c1ccc(N2CCC[C@H](N[C@@H]3CCCC[C@H]3Nc3ncc(-c4ccccc4)o3)C2)cc1 [Example 2, (1R,2R)—N1-((S)-1-(4-Nitrophenyl)piperidin-3-yl)-N2-(5-phenyloxazol-2-yl)cyclohexane-1,2-diamine]
- EC50 [4]: 3 nM

From patent publication US8815909B2, “Diaminocyclohexane compounds and uses thereof” (Bristol-Myers Squibb Company, priority 2011, dated 2014)
